Laboratory results: the NIST ThermoML archive (doi:10.1021/acs.jced.6b00192)

Details: Liquid, Vibrating tube method

CCCCOCCOCCO [3,6-dioxa-1-decanol]
mass density [kg/m3]
Details	283.15 K	293.15 K	303.15 K	313.15 K	323.15 K	333.15 K	343.15 K	353.15 K	363.15 K
100 kPa	960.4	952.4	943.8	935.5	927	917.8	909.1	901.1	892.6
1000 kPa	961.3	952.9	944.2	935.9	927.3	918.7	910.5	902.1	893.2
3000 kPa	962.6	954.3	946	937.2	928.8	920.7	912.35	903.9	894.9
5000 kPa	963.4	955.2	947	938.8	930.3	922.2	913.6	905.3	896.7
10000 kPa	966.5	958.4	950.3	942	933.8	925.7	917.6	909.3	900.4
15000 kPa	969.4	961.2	953	945.2	937.2	929.2	921.3	913.1	904.8
20000 kPa	971.9	964	956	948.4	940.4	932.5	924.7	916.8	908.5
25000 kPa	974.5	966.9	959.1	951.2	943.5	935.5	928.1	920.3	912.1
30000 kPa	977.1	969.6	962	953.8	946.4	939	931.3	923.7	915.7
35000 kPa	979.1	972	964.7	956.9	949.5	942	934.4	927.1	919.2
40000 kPa	981.4	974.4	967.1	959.7	952.5	945.2	937.3	930.3	922.7
50000 kPa	986.9	979.7	972.2	965	958.2	950.6	943.2	936.3	929.1
60000 kPa	990.4	983.9	977.1	969.7	963.4	956	948.8	942.2	935.2

CCCCOCCOCCOCCCC [5,8,11-trioxapentadecane]
mass density [kg/m3]
Details	283.15 K	293.15 K	303.15 K	313.15 K	323.15 K	333.15 K	343.15 K	353.15 K	363.15 K
100 kPa	891.3	882.9	874.5	866.1	857.2	849.1	840.4	832.4	823.4
1000 kPa	891.8	883.1	875.1	866.41	858.2	850	841.7	833	824.8
3000 kPa	893.2	884.8	876.6	868.1	859.8	851.6	843.5	835.1	827.1
5000 kPa	894.3	885.9	878.2	869.8	861.5	853.3	845.5	836.7	828.7
10000 kPa	897.7	889.6	881.8	873.5	865.4	857.5	849.8	841.4	833.5
15000 kPa	900.9	892.9	885.2	877.2	869.2	861.4	853.7	846	838.4
20000 kPa	904.3	896.1	888.42	880.7	873.1	865.4	857.9	850.3	842.8
25000 kPa	906.9	899.3	891.8	884.1	876.5	869	861.6	854	846.8
30000 kPa	909.9	902.3	894.9	887.1	879.8	872.6	865.3	857.9	850.9
35000 kPa	912.8	905.1	897.9	890.5	883.1	875.9	868.9	861.6	854.9
40000 kPa	915.3	907.9	900.8	893.3	886.3	879.5	872.3	865.1	858.5
50000 kPa	920.5	913.6	906.4	899.4	892.4	885.5	878.9	871.5	865.6
60000 kPa	925.4	918.2	911.8	904.9	898.8	891.6	884.7	878.2	872

CCCCOCCO [2-butoxyethan-1-ol]
mass density [kg/m3]
Details	283.15 K	293.15 K	303.15 K	313.15 K	323.15 K	333.15 K	343.15 K	353.15 K	363.15 K
100 kPa	907.9	900.5	891.8	883.5	874	865.6	856.5	847.5	838.2
1000 kPa	908.3	900.6	892.1	884	875	866.1	857.4	848.4	839.4
3000 kPa	909.9	902.2	893.9	885.6	876.5	868	859.3	850.5	841.4
5000 kPa	911	903.2	895.4	887.1	878.1	869.5	861.1	852.2	843.4
10000 kPa	914.2	906.8	898.9	890.7	881.9	873.5	865.1	856.7	847.9
15000 kPa	917.1	910	902	894.1	885.5	877.3	869.1	860.9	852.6
20000 kPa	920	912.9	905.5	897.3	889.1	880.9	873.2	864.8	856.4
25000 kPa	922.8	915.9	908.7	900.7	892.1	884.4	876.5	868.7	860.4
30000 kPa	925.6	918.8	911.8	903.6	895.4	887.6	880.1	872.3	864.4
35000 kPa	928.4	921.4	914.5	906.7	898.5	890.8	883.5	875.9	868.1
40000 kPa	930.9	924	916.7	909.4	901.6	894	886.7	879.2	871.8
50000 kPa	935.7	929.5	921.8	915.1	907.3	900.1	893	885.6	878.4
60000 kPa	940.5	933.9	927.1	920.1	912.9	905.7	898.6	891.8	884.8
